From the NIST ThermoML archive (doi:10.1021/je060170c)
“And” between values parts separate entries of the source, which are not always exact repeats. Identical values can stand only once. Numbers after ± are expanded uncertainties.

Assays:
[1] = xn = mol fraction of the nth substance listed; conditions: 101 kPa, Liquid; for viscosity: Anton Paar Stabinger viscometer
[2] = 101 kPa, Liquid; for viscosity: Anton Paar Stabinger viscometer

Cc1ccccc1 [toluene] + COc1ccccc1
[1], x2 = 0
Conditions	mass density [kg/m3]	speed of sound [m/s]	viscosity [mPa·s]
288.15 K	871.412 ± 0.33	1350 ± 5.4	0.63 ± 0.013
293.15 K	866.874 ± 0.34	1327.2 ± 5.4	0.588 ± 0.012
298.15 K	862.2 ± 0.35	1305.4 ± 5.3	0.556 ± 0.011
303.15 K	857.464 ± 0.35	1283.8 ± 5.2	0.523 ± 0.011

Cc1ccccc1 [toluene]
[2]
Conditions	mass density [kg/m3]	speed of sound [m/s]	viscosity [mPa·s]
288.15 K	871.412 ± 0.33	1350 ± 5.4	0.63 ± 0.013
293.15 K	866.874 ± 0.34	1327.2 ± 5.4	0.588 ± 0.012
298.15 K	862.2 ± 0.35	1305.4 ± 5.3	0.556 ± 0.011
303.15 K	857.464 ± 0.35	1283.8 ± 5.2	0.523 ± 0.011

Cc1ccc(C)cc1 [1,4-dimethylbenzene]
[2]
Conditions	mass density [kg/m3]	speed of sound [m/s]	viscosity [mPa·s]
288.15 K	865.253 ± 0.37	1352 ± 5.5	0.701 ± 0.021
293.15 K	860.917 ± 0.38	1331.1 ± 5.4	0.65 ± 0.02
298.15 K	856.617 ± 0.39	1310 ± 5.3	0.611 ± 0.018
303.15 K	852.255 ± 0.39	1289.7 ± 5.3	0.576 ± 0.017

Cc1cccc(C)c1 [1,3-dimethylbenzene]
[2]
Conditions	mass density [kg/m3]	speed of sound [m/s]	viscosity [mPa·s]
288.15 K	868.317 ± 0.37	1362.6 ± 5.5	0.666 ± 0.014
293.15 K	864.049 ± 0.38	1357 ± 25	0.619 ± 0.013
298.15 K	859.767 ± 0.38	1321 ± 5.4	0.581 ± 0.012
303.15 K	855.469 ± 0.39	1300.3 ± 5.3	0.552 ± 0.011

c1ccccc1 [benzene] + COc1ccccc1
[1], x2 = 0
Conditions	mass density [kg/m3]	speed of sound [m/s]	viscosity [mPa·s]
288.15 K	884.184 ± 0.35	1347.2 ± 5.5	0.709 ± 0.015
293.15 K	877.43 ± 0.36	1323.3 ± 5.4	0.648 ± 0.013
298.15 K	873.58 ± 0.36	1299.7 ± 5.3	0.604 ± 0.012
303.15 K	868.174 ± 0.37	1276.4 ± 5.2	0.571 ± 0.012

c1ccccc1 [benzene]
[2]
Conditions	mass density [kg/m3]	speed of sound [m/s]	viscosity [mPa·s]
288.15 K	884.184 ± 0.35	1347.2 ± 5.5	0.709 ± 0.015
293.15 K	877.43 ± 0.36	1323.3 ± 5.4	0.648 ± 0.013
298.15 K	873.58 ± 0.36	1299.7 ± 5.3	0.604 ± 0.012
303.15 K	868.174 ± 0.37	1276.4 ± 5.2	0.571 ± 0.012

COc1ccccc1 [anisole] + Cc1cc(C)cc(C)c1
[1], x1 = 1
Conditions	mass density [kg/m3]	speed of sound [m/s]	viscosity [mPa·s]
288.15 K	998.44 ± 0.23	1449.1 ± 5.8	1.188 ± 0.036
293.15 K	993.651 ± 0.23	1428.5 ± 5.7	1.084 ± 0.033
298.15 K	989.106 ± 0.24	1408 ± 5.7	1.017 ± 0.031
303.15 K	984.37 ± 0.25	1386.7 ± 5.6	0.931 ± 0.028

Cc1cc(C)cc(C)c1 [1,3,5-trimethylbenzene]
[2]
Conditions	mass density [kg/m3]	speed of sound [m/s]	viscosity [mPa·s]
288.15 K	869.169 ± 0.42	1377.5 ± 5.6	0.754 ± 0.023
293.15 K	865.072 ± 0.43	1357 ± 5.5	0.705 ± 0.021
298.15 K	861.062 ± 0.44	1336.9 ± 5.5	0.661 ± 0.02
303.15 K	856.95 ± 0.44	1316.8 ± 5.4	0.621 ± 0.019

COc1ccccc1 [anisole]
[2]
Conditions	mass density	speed of sound	viscosity [mPa·s]
288.15 K	998.441 ± 0.23 kg/m3 and 998.44 ± 0.23 kg/m3	1449.1 ± 5.8 m/s	1.188 ± 0.024
293.15 K	993.649 ± 0.23 kg/m3 and 993.653 ± 0.23 kg/m3 and 993.651 ± 0.23 kg/m3	1428.5 ± 5.7 m/s	1.084 ± 0.022
298.15 K	989.106 ± 0.24 kg/m3 [middle of 4 runs]	1408 ± 5.7 m/s	1.017 ± 0.021
303.15 K	984.372 ± 0.24 kg/m3 and 984.37 ± 0.25 kg/m3 and 984.374 ± 0.24 kg/m3	1387.7 ± 5.6 m/s and 1386.7 ± 5.6 m/s	0.931 ± 0.019

Cc1ccccc1C [1,2-dimethylbenzene]
[2]
Conditions	mass density [kg/m3]	speed of sound [m/s]	viscosity [mPa·s]
288.15 K	883.285 ± 0.41	1390.3 ± 5.6	0.871 ± 0.018
293.15 K	879.083 ± 0.41	1369.7 ± 5.6	0.81 ± 0.017
298.15 K	875.532 ± 0.42	1349.4 ± 5.5	0.756 ± 0.016
303.15 K	870.726 ± 0.42	1328.3 ± 5.4	0.708 ± 0.015

Cc1cccc(C)c1 [1,3-dimethylbenzene] + COc1ccccc1
[1], x2 = 0
Conditions	mass density [kg/m3]	speed of sound [m/s]	viscosity [mPa·s]
288.15 K	868.317 ± 0.37	1362.6 ± 5.5	0.666 ± 0.014
293.15 K	864.049 ± 0.38	1343.4 ± 5.4	0.619 ± 0.013
298.15 K	859.767 ± 0.38	1321 ± 5.4	0.581 ± 0.012
303.15 K	855.469 ± 0.39	1300.3 ± 5.3	0.552 ± 0.011

Cc1ccc(C)cc1 [1,4-dimethylbenzene] + COc1ccccc1
[1], x2 = 0
Conditions	mass density [kg/m3]	speed of sound [m/s]	viscosity [mPa·s]
288.15 K	865.253 ± 0.37	1352 ± 5.5	0.701 ± 0.021
293.15 K	860.917 ± 0.38	1331.1 ± 5.4	0.65 ± 0.02
298.15 K	856.617 ± 0.39	1310 ± 5.3	0.611 ± 0.018
303.15 K	852.255 ± 0.39	1289.7 ± 5.3	0.576 ± 0.017

Cc1ccccc1C [1,2-dimethylbenzene] + COc1ccccc1
[1], x2 = 0
Conditions	mass density [kg/m3]	speed of sound [m/s]	viscosity [mPa·s]
288.15 K	883.285 ± 0.41	1390.3 ± 5.6	0.871 ± 0.018
293.15 K	879.083 ± 0.41	1369.7 ± 5.6	0.81 ± 0.017
298.15 K	875.532 ± 0.42	1349.4 ± 5.5	0.756 ± 0.016
303.15 K	870.726 ± 0.42	1328.3 ± 5.4	0.708 ± 0.015
